According to ChEMBL document CHEMBL2346628, “Real-time analysis of membrane permeabilizing effects of oleanane saponins” (Bioorg Med Chem, 2013):
The source made the active and inactive calls. The rule behind the calls is not given here.

Key:
[1] = Hemolytic activity against human RBC at 1.5 to 48 uM after 30 mins; format: ADME, cell-based; conditions: erythrocyte, 0.5 h
ECV-304 [2] = test: Membrane permeabilization effect on lysosome of human ECV304 cells assessed as induction of membrane lysis up to 6 uM after 1 hr by N-Acetylglucosaminidase release assay; format: functional, cell-based
ECV-304 [3] = test: Membrane permeabilization effect on lysosome of human ECV304 cells up to 48 uM after 1 hr by N-Acetylglucosaminidase release assay; format: functional, cell-based
ECV-304 [4] = test: Membrane permeabilization effect on human ECV304 cells assessed as propidium iodide uptake up to 48 uM after 1 hr by FACS flow cytometric analysis; format: functional, cell-based
ECV-304 [5] = test: Membrane permeabilization effect on human ECV304 cells assessed as normalized cell index at 24 uM measured every 15 secs for 3 hrs by real time impedance-based plate reader analysis relative to control relative to control; format: functional
ECV-304 [6] = test: Membrane permeabilization effect on human ECV304 cells assessed as normalized cell index at 12 uM measured every 15 secs for 3 hrs by real time impedance-based plate reader analysis relative to control; format: functional
ECV-304 [7] = test: Membrane permeabilization effect on human ECV304 cells at 3 to 6 uM measured every 15 secs for 3 hrs by real time impedance-based plate reader analysis; format: functional, cell-based
ECV-304 [8] = test: Membrane permeabilization effect on human ECV304 cells at 3 to 24 uM measured every 15 secs for 3 hrs by real time impedance-based plate reader analysis; format: functional, cell-based
ECV-304 [9] = test: Membrane permeabilization effect on human ECV304 cells assessed as induction of membrane lysis at 48 uM after 1 hr; format: functional, cell-based
ECV-304 [10] = test: Membrane permeabilization effect on human ECV304 cells assessed as increase in propidium iodide uptake at 24 uM after 1 hr by FACS flow cytometric analysis; format: functional, cell-based
ECV-304 [11] = test: Membrane permeabilization effect on human ECV304 cells up to 12 uM measured every 15 secs for 3 hrs by real time impedance-based plate reader analysis; format: functional, cell-based
[12] = Hemolytic activity against human RBC at 48 uM after 30 mins; format: ADME, cell-based; conditions: erythrocyte, 0.5 h
[13] = Hemolytic activity against human RBC at 24 uM after 30 mins relative to control; format: ADME, cell-based, Erythrocyte; conditions: red blood cells (RBC), read-out: Activity
[14] = Hemolytic activity against human RBC up to 12 uM after 30 mins; format: ADME, cell-based; conditions: erythrocyte, 0.5 h
ECV-304 [15] = test: Membrane permeabilization effect on lysosome of human ECV304 cells assessed as induction of membrane lysis at 48 uM after 1 hr by N-Acetylglucosaminidase release assay; format: functional, cell-based
ECV-304 [16] = test: Membrane permeabilization effect on human ECV304 cells assessed as increase in propidium iodide uptake at 24 to 48 uM after 1 hr by FACS flow cytometric analysis; format: functional, cell-based
ECV-304 [17] = test: Membrane permeabilization effect on human ECV304 cells at 12 to 24 uM measured every 15 secs for 3 hrs by real time impedance-based plate reader analysis; format: functional, cell-based
ECV-304 [18] = test: Membrane permeabilization effect on human ECV304 cells at 6 uM measured every 15 secs for 3 hrs by real time impedance-based plate reader analysis; format: functional, cell-based
[19] = Hemolytic activity against human RBC at 12 uM after 30 mins relative to control; format: ADME, cell-based, Erythrocyte; conditions: red blood cells (RBC), read-out: Activity
[20] = Hemolytic activity against human RBC at 6 uM after 30 mins relative to control; format: ADME, cell-based, Erythrocyte; conditions: red blood cells (RBC), read-out: Activity
[21] = Hemolytic activity against human RBC at 3 uM after 30 mins relative to control; format: ADME, cell-based, Erythrocyte; conditions: red blood cells (RBC), read-out: Activity
ECV-304 [22] = test: Membrane permeabilization effect on lysosome of human ECV304 cells at 6 to 48 uM after 1 hr by N-Acetylglucosaminidase release assay; format: functional, cell-based
ECV-304 [23] = test: Membrane permeabilization effect on human ECV304 cells at 3 uM measured every 15 secs for 3 hrs by real time impedance-based plate reader analysis; format: functional, cell-based

Compound: CC1(C)[C@@H](O[C@H]2O[C@H](C(=O)O)[C@@H](O)[C@H](O)[C@H]2O[C@@H]2O[C@H](C(=O)O)[C@@H](O)[C@H](O)[C@H]2O)CC[C@]2(C)[C@H]3C(=O)C=C4[C@@H]5C[C@@](C)(C(=O)O)CC[C@]5(C)CC[C@@]4(C)[C@]3(C)CC[C@@H]12 [GLYCYRRHIZIN]
- Activity [1]: Non-toxic
- Activity (ECV-304 [2]): inactive
- Activity (ECV-304 [3]): inactive
- Activity (ECV-304 [4]): inactive
- Activity (ECV-304 [5]): inactive
- Activity (ECV-304 [6]): inactive
- Activity (ECV-304 [7]): inactive
- Activity (ECV-304 [8]): inactive

Compound: CCC(C)C(CC(O)CC(=O)O[C@H]1[C@@H](O)[C@@H](C)O[C@@H](OC(=O)[C@]23CCC(C)(C)C[C@H]2C2=CC[C@@H]4[C@@]5(C)CC[C@H](O[C@H]6O[C@H](C(=O)O)[C@@H](O)[C@H](O[C@@H]7OC[C@@H](O)[C@H](O)[C@H]7O)[C@H]6O[C@@H]6O[C@H](CO)[C@H](O)[C@H](O)[C@H]6O)[C@@](C)(C=O)[C@@H]5CC[C@@]4(C)[C@]2(C)C[C@H]3O)[C@@H]1O[C@@H]1O[C@@H](C)[C@H](O[C@@H]2OC[C@@H](O)[C@H](O[C@@H]3OCC(O)(O)[C@H]3O)[C@H]2O)[C@@H](O[C@@H]2O[C@H](CO)[C@@H](O)[C@H](O)[C@H]2O)[C@H]1O)OC(=O)CC(O)CC(O[C@@H]1O[C@@H](CO)[C@H](O)[C@H]1O[C@@H]1O[C@@H](C)[C@H](O)[C@@H](O)[C@H]1O)C(C)CC (stereo in doubt; form 1)
- Activity (ECV-304 [2]): inactive
- Activity (ECV-304 [9]): Active
- Activity (ECV-304 [10]): Active
- Activity (ECV-304 [11]): inactive

Compound: C[C@@H]1O[C@@H](O[C@H]2[C@H](OC(=O)[C@]34CCC(C)(C)C[C@H]3C3=CC[C@@H]5[C@@]6(C)CC[C@H](O[C@H]7O[C@H](C(=O)O)[C@@H](O)[C@H](O[C@@H]8OC[C@@H](O)[C@H](O)[C@H]8O)[C@H]7O[C@@H]7O[C@H](CO)[C@H](O)[C@H](O)[C@H]7O)[C@@](C)(C=O)[C@@H]6CC[C@@]5(C)[C@]3(C)CC4)O[C@H](C)[C@H](O[C@@H]3O[C@H](C)[C@@H](O)[C@H](O)[C@H]3O)[C@@H]2O)[C@H](O)[C@H](O)[C@H]1O[C@@H]1OC[C@@H](O)[C@H](O[C@@H]2OC[C@@H](O)[C@H](O)[C@H]2O)[C@H]1O
- Activity [12]: Toxic
- hemolysis at 0.5 h, 24 µM [13]: 30%
- Activity [14]: Non-toxic
- Activity (ECV-304 [2]): inactive
- Activity (ECV-304 [15]): inactive
- Activity (ECV-304 [16]): Active
- Activity (ECV-304 [17]): inactive
- Activity (ECV-304 [18]): Active

Compound: C[C@@H]1CC[C@@]2(OC1)O[C@H]1[C@@H](O)[C@H]3[C@@H]4CC[C@H]5C[C@@H](O[C@@H]6O[C@H](CO)[C@H](O[C@@H]7O[C@H](CO)C(O)[C@H](O[C@@H]8OC[C@@H](O)[C@H](O)[C@H]8O)[C@H]7O[C@@H]7O[C@H](CO)[C@H](O)[C@H](O[C@@H]8O[C@H](CO)[C@@H](O)[C@H](O)[C@H]8O)[C@H]7O)[C@H](O)[C@H]6O)[C@H](O)C[C@]5(C)[C@H]4CC[C@]3(C)[C@H]1[C@@H]2C (stereo partly drawn) [DIGITONIN]
- hemolysis at 0.5 h, 12 µM [19]: > 80%
- hemolysis at 0.5 h, 6 µM [20]: 68%
- hemolysis at 0.5 h, 3 µM [21]: 22%
- Activity (ECV-304 [2]): inactive
- Activity (ECV-304 [22]): Active
- Activity (ECV-304 [9]): Active
- Activity (ECV-304 [10]): Active
- Activity (ECV-304 [23]): Active
